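Results reflect a 48-hour exposure of cells in 96-well plates to compound at five concentrations. Here, GI50 denotes the concentration required for 50% inhibition of growth. TGI: concentration producing complete growth inhibition.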
How the values were obtained:
Experiment in all cases: NCI tumour cell line growth inhibition, 48 h
[1] = system: K-562 leukemia
[2] = system: SF-539 CNS
[3] = system: SK-OV-3 ovarian
[4] = system: MALME-3M melanoma
[5] = system: T-47D breast
[6] = system: NCI/ADR-RES ovarian
[7] = system: HL-60(TB) leukemia
[8] = system: M14 melanoma
[9] = system: U251 CNS
[10] = system: NCI-H23 lung
[11] = system: RXF 393 renal
[12] = system: SF-268 CNS
[13] = system: MDA-MB-231 breast
[14] = system: DU-145 prostate
[15] = system: HCT-116 colon
[16] = system: BT-549 breast
[17] = system: PC-3 prostate
[18] = system: SW-620 colon
[19] = system: HOP-92 NSCLC
[20] = system: A549 NSCLC
[21] = system: HCT-15 colon
[22] = system: 786-0 renal
[23] = system: A498 renal
[24] = system: HS 578T breast
[25] = system: SK-MEL-2 melanoma
[26] = system: UACC-62 melanoma
[27] = system: SK-MEL-28 melanoma
[28] = system: NCI-H460 lung
[29] = system: MDA-MB-435
[30] = system: SNB-19 CNS
[31] = system: NCI-H522 lung
[32] = system: UO-31 renal
[33] = system: HCC-2998 colon
[34] = system: CCRF-CEM leukemia
[35] = system: KM12 colon
[36] = system: NCI-H226 lung
[37] = system: SNB-75 CNS
[38] = system: MOLT-4 leukemia
[39] = system: TK-10 renal
[40] = system: OVCAR-3 ovarian
[41] = system: LOX IMVI melanoma
[42] = system: RPMI-8226 leukemia
[43] = system: SN12C renal
[44] = system: SF-295 CNS
[45] = system: COLO 205 colon
[46] = system: ACHN renal
[47] = system: OVCAR-4 ovarian
[48] = system: HOP-62 NSCLC
[49] = system: OVCAR-8 ovarian
[50] = system: IGROV1 ovarian
[51] = system: HT29 colon
[52] = system: UACC-257 melanoma
[53] = system: SK-MEL-5 melanoma
[54] = system: SR leukemia
[55] = system: OVCAR-5 ovarian
[56] = system: MCF7 breast

What does the source list for `O=C1/C(=C/c2ccc(F)cc2)CN(Cc2cn(CCNc3ccnc4cc(Cl)ccc34)nn2)C/C1=C\c1ccc(F)cc1`?
GI50 [1]: 301 nM; TGI [1]: 1580 nM; GI50 [2]: 1830 nM; TGI [2]: 3.27 µM; GI50 [3]: 1600 nM; TGI [3]: 3.02 µM; GI50 [4]: 1980 nM; TGI [4]: 3.76 µM; GI50 [5]: 1890 nM; TGI [5]: 4.33 µM; GI50 [6]: 2760 nM; TGI [6]: 11.3 µM; GI50 [7]: 1410 nM; TGI [7]: 4.97 µM; GI50 [8]: 1920 nM; TGI [8]: 3.74 µM; GI50 [9]: 1330 nM; TGI [9]: 2680 nM; GI50 [10]: 1840 nM; TGI [10]: 4.01 µM; GI50 [11]: 1660 nM; TGI [11]: 3.11 µM; GI50 [12]: 1520 nM; TGI [12]: 2910 nM; GI50 [13]: 1760 nM; TGI [13]: 3.41 µM; GI50 [14]: 1320 nM; TGI [14]: 2630 nM; GI50 [15]: 258 nM; TGI [15]: 721 nM; GI50 [16]: 1850 nM; TGI [16]: 3.26 µM; GI50 [17]: 1160 nM; TGI [17]: 2600 nM; GI50 [18]: 366 nM; TGI [18]: 1390 nM; GI50 [19]: 1340 nM; TGI [19]: 3.05 µM; GI50 [20]: 1880 nM; TGI [20]: 4.23 µM; GI50 [21]: 1400 nM; TGI [21]: 3.21 µM; GI50 [22]: 1660 nM; TGI [22]: 3.04 µM; GI50 [23]: 1110 nM; TGI [23]: 2350 nM; GI50 [24]: 2330 nM; TGI [24]: 7.56 µM; GI50 [25]: 1940 nM; TGI [25]: 3.73 µM; GI50 [26]: 1560 nM; TGI [26]: 2950 nM; GI50 [27]: 1740 nM; TGI [27]: 3.13 µM; GI50 [28]: 1180 nM; TGI [28]: 2570 nM; GI50 [29]: 1410 nM; TGI [29]: 2730 nM; GI50 [30]: 1570 nM; TGI [30]: 2920 nM; GI50 [31]: 1670 nM; TGI [31]: 3.16 µM; GI50 [32]: 1370 nM; TGI [32]: 2700 nM; GI50 [33]: 1190 nM; TGI [33]: 2550 nM; GI50 [34]: 1050 nM; TGI [34]: 4.65 µM; GI50 [35]: 328 nM; TGI [35]: 1190 nM; GI50 [36]: 1910 nM; TGI [36]: 4.24 µM; GI50 [37]: 1600 nM; TGI [37]: 3.62 µM; GI50 [38]: 2380 nM; TGI [38]: 7.08 µM; GI50 [39]: 1850 nM; TGI [39]: 3.45 µM; GI50 [40]: 1240 nM; TGI [40]: 2500 nM; GI50 [41]: 474 nM; TGI [41]: 1720 nM; GI50 [42]: 299 nM; TGI [42]: 896 nM; GI50 [43]: 1580 nM; TGI [43]: 3.09 µM; GI50 [44]: 1940 nM; TGI [44]: 3.65 µM; GI50 [45]: 1500 nM; TGI [45]: 2880 nM; GI50 [46]: 1680 nM; TGI [46]: 3.04 µM; GI50 [47]: 1810 nM; TGI [47]: 8.75 µM; GI50 [48]: 2070 nM; TGI [48]: 3.76 µM; GI50 [49]: 1780 nM; TGI [49]: 5.24 µM; GI50 [50]: 1500 nM; TGI [50]: 2930 nM; GI50 [51]: 680 nM; TGI [51]: 2090 nM; GI50 [52]: 1780 nM; TGI [52]: 3.35 µM; GI50 [53]: 1700 nM; TGI [53]: 3.06 µM; GI50 [54]: 333 nM; TGI [54]: 1660 nM; GI50 [55]: 1920 nM; TGI [55]: 3.71 µM; GI50 [56]: 400 nM; TGI [56]: 1750 nM
